# Columns and labels:
# [1] = system: Amaranthus; assay: Pre-emergence test; type: in vivo; conditions: application rate of 250 g/ha, after three weeks, 0%=no effect, 100%=total destruction
# Protocol: (§1) Pre-Emergence Test Solvent: 5 parts by weight of acetone Emulsifier: 1 part by weight of alkylaryl polyglycol ether To produce a suitable preparation of active compound, 1 part by weight of active compound is mixed with the stated amount of solvent, the stated amount of emulsifier is added and the concentrate is diluted with water to the desired concentration. Seeds of the test plants are sown in normal soil. After about 24 hours, the soil is sprayed with the preparation of active compound in such a way as to apply the particular amounts of active compound desired per unit area. The concentration of the spray liquor is chosen such that the particular amounts of active compound desired are applied in 1000 l of water/ha. After three weeks, the degree of damage to the plants is rated in % damage in comparison to the development of the untreated control. The figures denote: 0%=no effect (like untreated control) 100%=total destruction
# [2] = system: Sinapis; assay: Pre-emergence test; type: in vivo; conditions: application rate of 250 g/ha, after three weeks, 0%=no effect, 100%=total destruction
# Protocol: as §1
# [3] = system: Abutilon; assay: Pre-emergence test; type: in vivo; conditions: application rate of 250 g/ha, after three weeks, 0%=no effect, 100%=total destruction
# Protocol: as §1
# [4] = system: Setaria; assay: Pre-emergence test; type: in vivo; conditions: application rate of 250 g/ha, after three weeks, 0%=no effect, 100%=total destruction
# Protocol: as §1
# [5] = system: Amaranthus; assay: Post-emergence test; type: in vivo; conditions: application rate of 250 glha, after three weeks, 0%=no effect, 100%=total destruction
# Protocol: (§2) Post-Emergence Test Solvent: 5 parts by weight of acetone Emulsifier: 1 part by weight of alkylaryl polyglycol ether To produce a suitable preparation of active compound, 1 part by weight of active compound is mixed with the stated amount of solvent, the stated amount of emulsifier is added and the concentrate is diluted with water to the desired concentration. Test plants which have a height of 5-15 cm are sprayed with the preparation of active compound in such a way that the particular amounts of active compound desired are applied per unit area. The concentration of the spray liquor is chosen such that the particular amounts of active compound desired are applied in […] of water/ha. After three weeks, the degree of damage to the plants is rated in % damage in comparison to the development of the untreated control. The figures denote: 0%=no effect (like untreated control) 100%=total destruction
# [6] = system: Sinapis; assay: Post-emergence test; type: in vivo; conditions: application rate of 250 glha, after three weeks, 0%=no effect, 100%=total destruction
# Protocol: as §2
# [7] = system: Abutilon; assay: Post-emergence test; type: in vivo; conditions: application rate of 250 glha, after three weeks, 0%=no effect, 100%=total destruction
# Protocol: as §2
# [8] = system: Setaria; assay: Post-emergence test; type: in vivo; conditions: application rate of 250 glha, after three weeks, 0%=no effect, 100%=total destruction
# Protocol: as §2
# [9] = system: mustard beetle larvae (Phaedon cochleariae); assay: Phaedon larvae test; type: in vivo; conditions: active compound concentration of 0.1%; after 7 days; dipped cabbage leaves (Brassica oleracea)
# Protocol: Phaedon Larvae Test Solvent: 7 parts by weight of dimethylformamide Emulsifier: 1 part by weight of alkylaryl polyglycol ether To produce a suitable preparation of active compound, 1 part by weight of active compound is mixed with the stated amount of solvent and the stated amount of emulsifier, and the concentrate is diluted with water to the desired concentration. Cabbage leaves (Brassica oleracea) are treated by being dipped into the preparation of active compound of the desired concentration and are populated with mustard beetle larvae (Phaedon cochleariae) while the leaves are still moist. After the desired period of time, the kill in % is determined. 100% means that all beetle larvae have been killed; 0% means that none of the beetle larvae have been killed.
melting point [°C],Compound,"degree of damage to the plants (% damage), Amaranthus [1] [%]","degree of damage to the plants (% damage), Sinapis [2] [%]","degree of damage to the plants (% damage), Abutilon [3] [%]","degree of damage to the plants (% damage), Setaria [4] [%]","degree of damage to the plants (% damage), Amaranthus [5] [%]","degree of damage to the plants (% damage), Sinapis [6] [%]","degree of damage to the plants (% damage), Abutilon [7] [%]","degree of damage to the plants (% damage), Setaria [8] [%]",kill in % [9] [%]
212,"O=c1cc(C(F)(F)F)[nH]c(=O)n1-c1ccc(OCc2ccc(Cl)nc2)cc1F [Example 1, 1-[2-fluoro-4-(2-chloro-pyridin-5-y1-methoxy)-phenyl]-4-trifluoromethyl-3,6-dihydro-2,6-dioxo-1(2H)-pyrimidine]",,,,,,,,,
164,"Cn1c(C(F)(F)F)cc(=O)n(-c2ccc(OCc3ccc(Cl)nc3)cc2F)c1=O [Preparation Example 2, 1-[2-fluoro4-(2-chloro-pyridin-5-yl-methoxy)-phenyl]-3-methyl4-trifluoromethyl-3,6-dihydro-2,6-dioxo-1 (2H)-pyrimidine]",100,100,100,100,100,100,100,100,
171,"Nn1c(C(F)(F)F)cc(=O)n(-c2ccc(OCc3ccc(Cl)nc3)cc2F)c1=O [Preparation Example 3, 3-amino-1-[2-fluoro4-(2-chloro-pyridin-5-yl-methoxy)-phenyl]4-trifluoromethyl-3,6-dihydro-2,6-dioxo-1 (2H)-pyrimidine]",,,,,,,,,
,Nn1c(C(F)(F)F)cc(=O)n(-c2ccc(OCc3ccc(Cl)nc3)cc2F)c1=O [compound 3],100,100,100,100,100,100,100,100,100

# Source: patent US6448203B1, “Substituted aryluracils” (Bayer Aktiengesellschaft, priority 1997, dated 2002)
